From patent publication US20100003228A1, “T-CELL VACCINE” (priority 2006, published 2010) come the findings set out here.

Format in all cases: cell-based, human
Test [1] has as its system myelin reactive T cells in PBMCs. The test can be described thus: Epitope Analysis Assay (EAA): PBMC stimulation with myelin peptide mixes, tritiated thymidine incorporation, SI of at least 3 positive. The note with it: for subjects tested that were reactive: all 54 subjects tested. Here is the method:
The SI may be calculated by comparing [^3H] thymidine incorporation of the sample in the presence of a peptide comprising a portion of an MRTC polypeptide target to that in the presence of a media only control. Briefly, separate aliquots of the sample are plated and incubated in the presence of either a peptide comprising a portion of the polypeptide or a media only control in order to stimulate reactive T cells. The cultures are pulsed with [^3H] thymidine during the last 6-18 hours of incubation. The SI is calculated as the quotient of the mean counts per minute (cpm) of the antigen aliquots/mean cpm of the control aliquots. The SI of autoreactive T cells may be increased by at least a factor of 1.3, 1.4, 1.5, 1.6, 1.7, 1.8, 1.9, 2.0, 2.1, 2.2, 2.3, 2.4, 2.5, 2.6, 2.7. 2.8, 2.9, 3.0, 3.1, 3.2, 3.3, 3.4, 3.5, 3.6, 3.7, 3.8, 3.9, or 4.0 compared to a control.
The peptides in Example 2 were tested in an in vitro PBMC stimulation assay to identify myelin reactive T cells in a patient's blood. Peripheral blood mononuclear cells (PBMCs) were separated from whole blood, washed, counted and plated at 250,000 cells per well in a total of four 96-well plates. Myelin peptide mixes of two overlapping 16-mer peptides were added to triplicate wells of PBMCs with triplicate media only control wells included on each plate and then incubated. After two days of incubation, 20 U/ml of interleukin-2 (IL-2) was added. On the fifth day, the plates were labeled with a radioisotope (tritiated thymidine) and harvested 6 hours later. In this assay, the cells that incorporate tritiated thymidine are representative of T cells being activated and induced to proliferate by the T cell receptor-peptide-MHC complexes. T cells incorporating comparatively more tritiated thymidine than control and experimental cells are more highly activated T cells and are proliferating more rapidly.
Stimulation Indices (SI) were determined for each peptide mix by dividing the mean radiolabel counts per minute (CPM) of the peptide stimulated wells by the mean CPM of the media only control wells averaged across all four plates. An SI of at least 3 was considered positive. FIG. 1 is an example of EAA from one MS patient. Seven of the peptide mixtures were slightly reactive, with the MOGm15 stimulated wells being very reactive. FIGS. 2-4 show the frequency of reactivity to the peptide mixes in 48 patients.

Test [2] has as its system PBMCs / T cells. The test is described as follows: Growth analysis of T cell lines stimulated with EAA-selected peptide mixes. The note with it: from 15 million PBMCs, in 20 days, 3 stimulations. Here is the method:
Patient-specific peptides identified by EAA were tested to determine whether they could be used to produce and expand myelin-reactive T-cells for use in a vaccine. A 500 ml bag of blood was obtained from the patient to set up vaccine production cultures. Bulk cultures were set up in AIM V medium along with the optimized peptides. After 48 hours of incubation, rIL-2 was added at 20 U/ml. Seven days later, the cultures were re-stimulated with PBMCs and peptide. The media was changed to 2% AB serum with 100 U/ml rIL2 in X Vivo 15 medium. The cultures were fed and split every 1-4 days as necessary. After an additional seven days, the cultures were once again stimulated with APCs and peptides. The cultures were continued to be fed and split every 1-4 days as necessary. After an additional 7-14 days, the cultures had expanded to at least 100×10^6 cells. The cells were divided into aliquots of 10×10^6 cells and frozen.
The ability of stimulation with the EAA-selected peptides to more rapidly expand the stimulated the T cells were tested. The cell growth curves were analyzed for two different stimulatory peptide mixes. The EAA CPM data shown in FIG. 8 show a strongly reactive mix in MBPm19 for a patient with an SI of 4.7. […] These two peptides mixes were then used to stimulate PBMCs from this patient to produce T cell lines. […]

For test [3], the system named is myelin reactive T cells in PBMCs. The test can be described thus: EAA with positivity by Variance Evaluation Method or CPM Variance Method (clinical trials). The note with it: clinical trial population, RR-MS or CIS subjects. The source says: The predetermined value may also be calculated using a Variance Evaluation Method as follows: • 1. EAAs may be run on a given patient population (minimum of 120 assays from 120 unique subjects) • 2. A “negative population” may be created by averaging all SI values<2.5 • 3. The Standard Deviation (SD) may be calculated for each peptide • 4. The following for each peptide may be then be calculated: • a. Average+1SD • b. Average+2SD • c. Average+3SD • 5. The following SIs may be considered above the predetermined value: • a. SI greater than or equal to the average+3SD • b. Any SI greater than or equal to 2.5
The predetermined value may also be evaluated using a Counts per Minute (CPM) Variance Method. This algorithm may set a comprehensive cutoff for all peptides within a given assay. It may be calculated as follows: • 1. EAAs may be run and the CPM for all control (media only, no antigen) wells averaged. • 2. The SD for CPM of the control wells may then be calculated. • 3. The following may then be calculated for the control wells: • a. Average+1SD • b. Average+2SD • c. Average+3SD • 4. Any peptide with an average CPM greater than or equal to the average+3SD of the control wells may be considered above the predetermined value.
Any peptide, either analyzed in an individual well or as averaged over wells run in triplicate, with an SI≧2.5, an SI≧average+3SD by the Variance Evaluation Method, or an SI≧average+3SD by the CPM variance method may be considered above the predetermined value, which may indicate a T cell(s) positive for reactivity to a peptide.
The peptides of Example 3 have been tested in 429 EAAs in clinical trials as follows. […] Pre-Vaccine EAAs have 158 positive out of 387 assays (40.8%), with Relapse Remitting MS patients (RRMS) showing 150 positive of 368 assays (40.8%), and Clinically Isolated Syndrome (CIS) patients showing 8 positive of 19 assays (42.1%).
Over the course of 6 months a study was conducted with 120 subjects meeting the criteria for the clinical trial.
The above mentioned population of subjects was evaluated by EAA using the Variance Evaluation Method and CPM Variance Method as described above, and deemed eligible for vaccine production. Of the 120 attempts to manufacture vaccine, there were 2 shipping failures (blood was not received within our stated criteria), 1 culture was lost to contamination and 5 samples arrived with low cell volume/yield. Of the remaining 112 subjects, vaccine was successfully generated in 89 subjects, with 22 still in production (98.9% of eligible samples, 92.5% of all samples completed). From this, a positive EAA was deemed predictive of the ability to manufacture a vaccine to therapeutic dose by methods disclosed herein.

Test [4] deals with T cell receptor variable beta chain usage (Vβ). The test can be described thus: TCR V beta analysis of peptide-stimulated T cell line by flow cytometry. The note with it: Day 9 to Day 16 in culture, FIG. 10. As for the experimental part:
Enrichment of T cell subsets was evaluated by analyzing the T cell receptor variable beta chain usage (Vβ). The 24 different known beta chain variable (Vβ) region families were evaluated using specific fluorescent-labeled monoclonal antibodies and flow cytometry. If a particular subset of T cells is selectively expanded by stimulation with a peptide, an increase would be detected in the percentage of cells expressing one of the V beta families as that subset expands.
[…] A T cell line was produced by stimulating the patient's PBMCs with peptide mix MBPm10, which had produced an SI of 4.6 in the original EAA for this patient. […] This mix was used to stimulate PBMCs from this patient in culture.
On the technique in general: Flow cytometry measures light scatter and fluorescence of single cells or particles in a stream.

In the case of “MBP 151-170: immunodominant peptide of MBP used to prepare vaccines in Example 1 (TASTMDHARHGFLPRHRDTG; UniProt P02686 151-170, looked up, fragment)”, the “subjects tested that were reactive” value in test [1] was “Forty-one percent”.

Take “PLPm33: mix of PLP 65 and PLP 66 (chain 1 FMIAATYNFAVLKLMG; chain 2 ATYNFAVLKLMGRGTK)”: the “T cells after expansion” value in test [2] came out at 200 million T cells. Moreover, the “Stimulation Index (SI)” value in test [1] (patient of Example 8, FIG. 8) was determined as 17.9. Besides, in test [3], the “# of Subjects (frequency of identification)” value came to 11 and the “% of Subjects (frequency of identification)” value is given as 9.2%.

For “PLP 30-49: PLP immunodominant peptide used to prepare vaccines in Example 1 (ALFCGCGHEALTGTEKLIET; UniProt P60201 30-49, looked up, fragment)”, the “subjects tested that were reactive” value in test [1] is recorded as 31%.

For the substance “PLP 180-199: PLP immunodominant peptide used to prepare vaccines in Example 1 (TWTTCQSIAFPSKTSASIGS; UniProt P60201 180-199, looked up, fragment)”, in test [1], the “subjects tested that were reactive” value was found to be 31%.

“PLPm27: mix of PLP 53 and PLP 54 (chain 1 VLPWNAFPGKVCGSNL; chain 2 NAFPGKVCGSNLLSIC)”: in test [3], the “# of Subjects (frequency of identification)” value came to 6 and the “% of Subjects (frequency of identification)” value amounted to 5.0%. Also, the “TCR V beta focusing” value in test [4] is reported as “V beta chain 5-5 is expanding”.
